ChEMBL document CHEMBL1201862, “PubChem BioAssay data set” (2004)
Active and inactive are the calls of the source.

What was measured:
[1] = molecular target: T1, Serine/threonine-protein phosphatase (Candida dubliniensis (strain CD36 / CBS 7987 / NCPF 3949 / NRRLY-17841) (Yeast), UniProt B9W6M3); test: calcineurin pathway inhibitors in yeast reporter, dose response, S. cerevisiae, CDRE-lacZ, luminescence, secondary (AID 2388); assay type: functional, cell-based;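 also: yeast reporter cells carrying a calcineurin-responsive lacZ construct stimulated with calcium chloride; luminescent beta-galactosidase reporter signal in whole cells rather than isolated phosphatase activity; potency for inhibition where a drop in reporter signal means calcineurin blockade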
T1 sequence (B9W6M3 whole entry): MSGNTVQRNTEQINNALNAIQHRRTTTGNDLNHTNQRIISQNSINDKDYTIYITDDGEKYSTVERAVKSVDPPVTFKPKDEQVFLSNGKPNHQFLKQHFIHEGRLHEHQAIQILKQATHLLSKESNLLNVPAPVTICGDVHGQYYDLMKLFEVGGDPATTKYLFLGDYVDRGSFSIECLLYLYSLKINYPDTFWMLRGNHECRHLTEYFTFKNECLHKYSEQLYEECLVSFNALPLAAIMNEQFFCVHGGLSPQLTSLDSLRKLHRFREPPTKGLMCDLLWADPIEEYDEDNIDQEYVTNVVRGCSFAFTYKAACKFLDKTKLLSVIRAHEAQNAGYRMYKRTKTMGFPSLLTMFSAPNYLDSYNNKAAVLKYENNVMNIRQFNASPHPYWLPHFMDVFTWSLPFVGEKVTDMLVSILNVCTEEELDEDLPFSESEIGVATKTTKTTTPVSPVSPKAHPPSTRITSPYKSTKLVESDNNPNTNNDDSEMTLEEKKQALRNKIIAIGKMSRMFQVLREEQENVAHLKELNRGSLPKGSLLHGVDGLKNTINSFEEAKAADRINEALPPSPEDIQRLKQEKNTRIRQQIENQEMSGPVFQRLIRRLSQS

[2] = cells; assay type: functional, cell-based
[3] = molecular target: Cytochrome P450 2C19 (Homo sapiens, UniProt P33261); test: Cytochrome panel assay with activity outcomes. Panel member name: p450-cyp2c19 Compounds with AC50 equal or less than 10 uM are considered active; assay type: functional; conditions: read-out: AC50
[4] = tested on: BJ; test: cells; assay type: functional, cell-based; conditions: Homo sapiens
[5] = molecular target: Cytochrome P450 2C9 (Homo sapiens, UniProt P11712)
[6] = molecular target: Sphingosine 1-phosphate receptor 2 (Homo sapiens, UniProt O95136); test: Dose Response Cell Based Assay for Antagonists of the S1P2 Receptor. [Related pubchem assays: 856, 736 ]; assay type: functional
[7] = molecular target: Tyrosyl-DNA phosphodiesterase 2 (Homo sapiens, UniProt O95551); test: human TDP2 enzyme inhibitors, dose response, biochemical, epi absorbance, IC50 (AID 743297)
[8] = molecular target: T2, 1-phosphatidylinositol 4,5-bisphosphate phosphodiesterase gamma-1 (Homo sapiens, UniProt P19174); test: Counterscreen for inhibitors of phospholipase C isozymes (PLC-B3): Fluorescence-based biochemical high throughput dose response assay to identify inhibitors of phospholipase C isozymes (PLC-gamma1).
T2 sequence (P19174 whole entry): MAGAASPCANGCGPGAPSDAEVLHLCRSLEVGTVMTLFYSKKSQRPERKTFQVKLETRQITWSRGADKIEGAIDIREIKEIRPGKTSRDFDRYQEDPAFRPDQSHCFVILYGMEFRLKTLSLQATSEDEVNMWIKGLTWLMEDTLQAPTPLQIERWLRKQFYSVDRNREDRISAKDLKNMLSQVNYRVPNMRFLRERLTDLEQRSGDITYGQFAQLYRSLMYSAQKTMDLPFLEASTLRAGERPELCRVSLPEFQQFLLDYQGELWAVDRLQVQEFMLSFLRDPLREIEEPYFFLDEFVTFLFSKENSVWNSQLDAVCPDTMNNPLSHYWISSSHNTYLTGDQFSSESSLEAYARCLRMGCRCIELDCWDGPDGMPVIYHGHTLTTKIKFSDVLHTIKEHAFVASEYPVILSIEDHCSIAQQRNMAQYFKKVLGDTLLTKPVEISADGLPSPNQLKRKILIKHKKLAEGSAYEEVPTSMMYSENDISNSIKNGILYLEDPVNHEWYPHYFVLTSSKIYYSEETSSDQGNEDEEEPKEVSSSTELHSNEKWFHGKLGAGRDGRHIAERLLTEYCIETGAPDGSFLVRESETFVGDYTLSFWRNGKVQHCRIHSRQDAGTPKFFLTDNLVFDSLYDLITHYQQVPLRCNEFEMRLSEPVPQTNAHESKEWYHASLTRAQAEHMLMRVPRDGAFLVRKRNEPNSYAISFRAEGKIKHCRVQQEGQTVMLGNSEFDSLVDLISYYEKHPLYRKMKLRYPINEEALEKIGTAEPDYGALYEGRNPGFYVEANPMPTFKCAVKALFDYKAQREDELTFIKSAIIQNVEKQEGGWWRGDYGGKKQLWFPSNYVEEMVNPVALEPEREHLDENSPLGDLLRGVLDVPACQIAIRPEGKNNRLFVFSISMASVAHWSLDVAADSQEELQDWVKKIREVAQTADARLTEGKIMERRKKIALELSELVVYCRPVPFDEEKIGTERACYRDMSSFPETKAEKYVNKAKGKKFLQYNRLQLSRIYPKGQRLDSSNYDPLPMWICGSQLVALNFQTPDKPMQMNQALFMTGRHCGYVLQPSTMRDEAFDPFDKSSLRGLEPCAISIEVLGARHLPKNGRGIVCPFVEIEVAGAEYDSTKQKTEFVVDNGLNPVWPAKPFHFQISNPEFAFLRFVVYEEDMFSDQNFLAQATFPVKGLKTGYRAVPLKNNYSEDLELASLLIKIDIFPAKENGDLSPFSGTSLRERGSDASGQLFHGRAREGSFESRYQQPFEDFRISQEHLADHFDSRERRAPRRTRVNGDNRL

[9] = MDA-MB-231 cell growth inhibition, dose response, cytotoxicity control for RAD54 inhibitor project, CellTiter-Glo luminescence, cherry-pick (AID 651692); assay type: functional, cell-based
[10] = molecular target: T3, Small ubiquitin-related modifier 1 (Homo sapiens, UniProt P63165); test: inhibitors of SUMO1 peptide binding, dose response, biochemical, fluorescence polarization, uHTS hits (AID 624382); assay type: functional; conditions: read-out: IC50_Mean
[11] = molecular target: Genome polyprotein (dengue virus type 2, UniProt P29990); test: Dengue-2 NS5 methyltransferase inhibitors, primary screen, biochemical, confirmation dose response (AID 588689); assay type: functional
[12] = molecular target: T3, Small ubiquitin-related modifier 1; test: inhibitors of SUMO1 partner interactions, dose response, biochemical, FRET (AID 624383); assay type: functional; conditions: read-out: IC50_Mean
[13] = molecular target: ORF 73 (Human herpesvirus 8, UniProt O40947); test: inhibitors of C-LANA binding to LBS DNA, dose response, biochemical, fluorescence polarization, cherry-picked samples (AID 504725); parameters: species or system Human gammaherpesvirus 8;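 also: fluorescence polarization of a labeled DNA duplex reporting LANA DNA binding; potency is for inhibitors that block LANA binding to the DNA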
ORF 73, sequence (O40947 whole entry): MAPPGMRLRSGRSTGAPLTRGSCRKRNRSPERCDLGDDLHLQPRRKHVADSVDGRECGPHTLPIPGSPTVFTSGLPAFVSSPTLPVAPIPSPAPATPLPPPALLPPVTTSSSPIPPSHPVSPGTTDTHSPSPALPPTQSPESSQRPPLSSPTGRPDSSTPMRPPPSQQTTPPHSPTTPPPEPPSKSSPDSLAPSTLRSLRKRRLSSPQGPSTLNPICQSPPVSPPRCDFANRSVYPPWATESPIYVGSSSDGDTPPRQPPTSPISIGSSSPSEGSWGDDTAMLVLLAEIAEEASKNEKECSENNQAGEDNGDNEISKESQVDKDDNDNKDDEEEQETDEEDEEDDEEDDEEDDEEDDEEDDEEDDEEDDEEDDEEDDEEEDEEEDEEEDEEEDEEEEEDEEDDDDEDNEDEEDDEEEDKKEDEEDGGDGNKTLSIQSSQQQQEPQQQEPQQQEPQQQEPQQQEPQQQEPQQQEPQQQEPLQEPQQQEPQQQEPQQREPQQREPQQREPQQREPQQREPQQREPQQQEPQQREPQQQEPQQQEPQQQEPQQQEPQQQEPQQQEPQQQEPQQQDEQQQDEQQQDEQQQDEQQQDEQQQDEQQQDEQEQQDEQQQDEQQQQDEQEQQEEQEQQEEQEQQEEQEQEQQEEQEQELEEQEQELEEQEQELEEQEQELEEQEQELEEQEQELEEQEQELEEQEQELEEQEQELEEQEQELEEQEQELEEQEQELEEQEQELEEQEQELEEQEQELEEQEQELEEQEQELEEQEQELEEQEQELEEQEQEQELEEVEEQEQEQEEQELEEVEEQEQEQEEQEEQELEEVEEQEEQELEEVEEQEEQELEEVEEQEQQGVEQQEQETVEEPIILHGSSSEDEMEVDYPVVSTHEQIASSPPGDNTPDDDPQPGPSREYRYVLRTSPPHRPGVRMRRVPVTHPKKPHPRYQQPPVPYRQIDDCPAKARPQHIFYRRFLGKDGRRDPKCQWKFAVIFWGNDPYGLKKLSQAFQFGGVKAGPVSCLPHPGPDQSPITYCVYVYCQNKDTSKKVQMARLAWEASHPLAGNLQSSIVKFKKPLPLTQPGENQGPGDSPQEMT

T3 sequence (P63165 whole entry): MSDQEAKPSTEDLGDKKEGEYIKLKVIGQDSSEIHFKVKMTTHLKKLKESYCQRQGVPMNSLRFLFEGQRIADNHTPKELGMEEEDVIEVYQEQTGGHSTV
Cytochrome P450 2C19, sequence (P33261 whole entry): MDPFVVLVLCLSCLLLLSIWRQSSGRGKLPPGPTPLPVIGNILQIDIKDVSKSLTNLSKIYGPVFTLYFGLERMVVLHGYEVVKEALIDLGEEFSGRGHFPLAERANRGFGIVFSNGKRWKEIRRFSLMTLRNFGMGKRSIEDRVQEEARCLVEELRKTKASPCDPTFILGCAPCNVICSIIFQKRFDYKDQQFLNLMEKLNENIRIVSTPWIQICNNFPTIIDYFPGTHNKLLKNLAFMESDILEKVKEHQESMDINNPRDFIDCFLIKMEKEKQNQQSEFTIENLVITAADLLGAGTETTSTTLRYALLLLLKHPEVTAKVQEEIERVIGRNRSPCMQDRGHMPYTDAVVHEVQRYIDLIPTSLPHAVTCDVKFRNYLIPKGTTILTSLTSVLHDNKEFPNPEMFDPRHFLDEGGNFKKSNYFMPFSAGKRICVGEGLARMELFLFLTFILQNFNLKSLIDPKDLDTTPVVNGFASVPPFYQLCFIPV
Cytochrome P450 2C9, sequence (P11712 whole entry): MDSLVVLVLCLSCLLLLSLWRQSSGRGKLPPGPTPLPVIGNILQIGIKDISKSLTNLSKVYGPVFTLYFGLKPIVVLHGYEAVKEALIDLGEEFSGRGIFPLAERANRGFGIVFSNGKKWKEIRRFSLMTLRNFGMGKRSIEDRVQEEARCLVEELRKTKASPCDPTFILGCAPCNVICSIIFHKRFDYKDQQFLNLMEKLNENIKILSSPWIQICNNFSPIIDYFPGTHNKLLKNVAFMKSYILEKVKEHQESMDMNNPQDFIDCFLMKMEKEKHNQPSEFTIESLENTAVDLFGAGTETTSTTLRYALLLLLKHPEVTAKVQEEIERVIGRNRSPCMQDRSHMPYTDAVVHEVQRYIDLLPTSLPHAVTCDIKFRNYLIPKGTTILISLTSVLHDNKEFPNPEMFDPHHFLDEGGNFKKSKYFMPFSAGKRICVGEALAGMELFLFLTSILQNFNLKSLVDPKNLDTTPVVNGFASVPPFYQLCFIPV
Sphingosine 1-phosphate receptor 2, sequence (O95136 whole entry): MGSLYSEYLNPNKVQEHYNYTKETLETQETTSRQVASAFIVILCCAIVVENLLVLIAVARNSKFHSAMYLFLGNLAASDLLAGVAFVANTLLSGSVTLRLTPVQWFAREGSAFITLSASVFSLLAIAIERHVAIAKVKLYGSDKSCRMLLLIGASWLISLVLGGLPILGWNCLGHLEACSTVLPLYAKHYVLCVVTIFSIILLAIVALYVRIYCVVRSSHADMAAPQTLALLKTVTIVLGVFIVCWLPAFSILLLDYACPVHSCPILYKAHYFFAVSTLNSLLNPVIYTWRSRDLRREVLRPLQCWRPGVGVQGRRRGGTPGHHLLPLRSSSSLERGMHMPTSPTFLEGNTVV
Genome polyprotein, sequence (P29990 2492-3391 limits assumed): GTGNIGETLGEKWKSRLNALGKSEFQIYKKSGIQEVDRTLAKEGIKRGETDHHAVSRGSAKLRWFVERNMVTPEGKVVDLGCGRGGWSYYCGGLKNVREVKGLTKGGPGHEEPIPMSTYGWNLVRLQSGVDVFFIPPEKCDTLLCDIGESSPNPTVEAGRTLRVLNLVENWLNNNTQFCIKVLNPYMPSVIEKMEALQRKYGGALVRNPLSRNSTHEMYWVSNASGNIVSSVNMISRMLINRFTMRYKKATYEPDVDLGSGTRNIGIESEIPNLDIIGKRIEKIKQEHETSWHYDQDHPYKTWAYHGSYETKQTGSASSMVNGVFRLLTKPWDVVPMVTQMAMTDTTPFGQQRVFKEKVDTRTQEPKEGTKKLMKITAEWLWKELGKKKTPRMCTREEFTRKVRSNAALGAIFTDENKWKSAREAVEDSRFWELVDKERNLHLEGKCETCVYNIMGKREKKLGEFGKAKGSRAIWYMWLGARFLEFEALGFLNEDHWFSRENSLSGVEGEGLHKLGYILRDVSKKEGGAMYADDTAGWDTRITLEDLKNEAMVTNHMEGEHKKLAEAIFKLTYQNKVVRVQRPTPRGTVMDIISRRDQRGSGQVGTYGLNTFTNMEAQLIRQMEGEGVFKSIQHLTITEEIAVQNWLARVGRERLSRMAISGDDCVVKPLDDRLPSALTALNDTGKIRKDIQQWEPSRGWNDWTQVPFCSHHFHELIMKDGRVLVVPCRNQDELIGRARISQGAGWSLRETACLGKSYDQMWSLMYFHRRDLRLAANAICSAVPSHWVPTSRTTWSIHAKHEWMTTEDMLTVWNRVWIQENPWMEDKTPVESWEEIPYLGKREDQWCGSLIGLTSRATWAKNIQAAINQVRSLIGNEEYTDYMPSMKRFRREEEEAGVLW
Tyrosyl-DNA phosphodiesterase 2, sequence (O95551 whole entry): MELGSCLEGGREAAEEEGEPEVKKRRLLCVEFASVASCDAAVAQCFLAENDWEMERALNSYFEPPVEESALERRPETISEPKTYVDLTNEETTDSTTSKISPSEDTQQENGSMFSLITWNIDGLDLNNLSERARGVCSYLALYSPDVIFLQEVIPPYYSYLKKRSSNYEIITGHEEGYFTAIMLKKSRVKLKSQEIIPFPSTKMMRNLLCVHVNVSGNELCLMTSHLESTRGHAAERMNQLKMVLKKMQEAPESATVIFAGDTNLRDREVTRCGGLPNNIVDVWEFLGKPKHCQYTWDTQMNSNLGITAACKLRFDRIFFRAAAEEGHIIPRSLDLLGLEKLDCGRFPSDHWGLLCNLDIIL

Structure (SMILES): CCC(=O)NC(c1ccc(OC)cc1)c1cc(Cl)c2cccnc2c1O (stereo not drawn)
- EC50 [1]: > 180 µM (inactive)
- EC50 [2]: 19 µM (active)

Structure (SMILES): CCCCCCCCCCn1c2c(c(=N)c3c1CCC3)CCC2
- AC50 [3]: 28.2 µM (inconclusive)
- EC50 [4]: 2.46 µM (inconclusive)
- AC50 [5]: 20 µM (inconclusive)
- IC50 [6]: 2.94 µM (active)

Structure (SMILES): Cn1nc(-c2ccccn2)nc2c(=O)n(C)c(=O)nc1-2
- IC50 [7]: 0.21 µM (active)
- IC50 [8]: > 4.54 µM (active)
- AC50 [9]: 3.79 µM (active)

Structure (SMILES): COc1ccc(NS(=O)(=O)c2ccc3c(c2)[C@H]2C=CC[C@H]2[C@@H](c2ccc(C(=O)O)cc2)N3)cc1
- IC50 [10]: 4.98 µM (active)
- IC50 [11]: 44.3 µM (active)
- IC50 [12]: 24.5 µM (inactive)
- AC50 [13]: 71.9 µM (active)
